Test results taken from US20220400680A1, “USE OF ACYLCYANAMIDES OR SALTS THEREOF FOR REGULATING PLANT GROWTH” (Alzchem Trostberg GmbH, priority 2019, published 2022).

Assays:
[1] = system: Table apple, type Boiken apple (C1); experiment: Greenhouse test, cut apple branches C1 dipped in test solution, bud development stage; format: in vivo, Malus domestica; set-up: key to Bud development stage, apple branches C1: Stage 0: Buds unchanged; Stage 1: Buds slightly swollen, first green tips visible; Stage 2: strongly swollen, green buds; Stage 3: Buds before breaking open, leaf or flower root already visible; Stage 4: Flower buds fully developed, but still closed, white petals already visible. In the case of the grapevine, stage 4 was the unfolding of the first leaves; Stage 5: Flowers fully open or, in the case of grapevine, unfolding of the flower roots (“Gescheine”) on the fully leafed sprouts; conditions: for Good to very good dormancy-breaking effect, apple C1: stage 4 reached or exceeded after 27 days vs negative control; for Dormancy-breaking effect according to the definition, apple C1: stage 4 reached or exceeded after 36 days vs negative control
Experimental: Greenhouse tests were conducted using cut fruit tree branches placed in water jars and maintained under controlled conditions with temperature regulation at approximately 22° C. and natural lighting. C1: Table Apple, Type Boiken Apple Table apple: Malus domestica type Boiken first described in 1828 in Bremen after Deichvogt Boiken. Apple type for rough locations and for almost every soil suitable scattered fruit type, whereby heavy soils and not too warm locations are required. Tree growth initially strong, later medium. Older crowns become broadly spherical and are loosely branched. Flowering starting medium-late and long lasting, petals large with little pink. Yield starting late (October) and irregular; with long shelf life and pressure resistance. […] The test solutions were prepared directly, i.e. without intermediate preparation of a concentrate. For each of the test substances A-1 to A-13, an aqueous solution of 0.15 mol of the test substance and 0.15 g BreakThru® OE-446 was prepared and filled up to a total of 500 g with water. Of bis-cyanamides A-14 and A-15, 0.075 mol each was filled up to 500 g in an analogous manner. These test solutions (in combination with the above 4 species/types Cx) were given the test numbers Cx-A1 to Cx-A15. […] This was done with the following evaluation scale: • Stage 0: […] Flower buds fully developed, but still closed, white petals already visible. […] Flowers fully open or, in the case of grapevine, unfolding of the flower roots (“[…]”) on the fully leafed sprouts.

[2] = system: Table apple, type Zabergäu-Renette (C2); experiment: Greenhouse test, cut apple branches C2 dipped in test solution, bud development stage; format: in vivo, Malus domestica; set-up: key to Bud development stage, apple branches C2: Stage 0: Buds unchanged; Stage 1: Buds slightly swollen, first green tips visible; Stage 2: strongly swollen, green buds; Stage 3: Buds before breaking open, leaf or flower root already visible; Stage 4: Flower buds fully developed, but still closed, white petals already visible. In the case of the grapevine, stage 4 was the unfolding of the first leaves; Stage 5: Flowers fully open or, in the case of grapevine, unfolding of the flower roots (“Gescheine”) on the fully leafed sprouts; conditions: for Dormancy-breaking effect according to the definition, apple C2: stage 4 reached or exceeded after 36 days vs negative control
Experimental: Greenhouse tests were conducted using cut fruit tree branches placed in water jars and maintained under controlled conditions with temperature regulation at approximately 22° C. and natural lighting. C2: Table Apple, Type […] Table apple: Malus domestica type […] first developed in 1885 as a chance seedling in Hausen a.d. Zaber/Baden-Württemberg and initially grown as 'Hausener Graue […]'. No defined storage type; requires heavy soils (loam). Tree growth initially strong with oblique upright leading branches, later medium with flat branches. Crown broad and flat-spherical with flat fruiting wood. Leaves large, broad oval and with clearly separated tip. Triploid type with late and long-lasting flowering. Yield starting early, medium high and somewhat alternate. […] The test solutions were prepared directly, i.e. without intermediate preparation of a concentrate. For each of the test substances A-1 to A-13, an aqueous solution of 0.15 mol of the test substance and 0.15 g BreakThru® OE-446 was prepared and filled up to a total of 500 g with water. Of bis-cyanamides A-14 and A-15, 0.075 mol each was filled up to 500 g in an analogous manner. These test solutions (in combination with the above 4 species/types Cx) were given the test numbers Cx-A1 to Cx-A15. […] This was done with the following evaluation scale: • Stage 0: […] Flower buds fully developed, but still closed, white petals already visible. […] Flowers fully open or, in the case of grapevine, unfolding of the flower roots (“[…]”) on the fully leafed sprouts.

[3] = system: Table cherry, type Burlat (C3); experiment: Greenhouse test, cut cherry branches C3 dipped in test solution, bud development stage; format: in vivo, Prunus avium; set-up: key to Bud development stage, cherry branches C3: Stage 0: Buds unchanged; Stage 1: Buds slightly swollen, first green tips visible; Stage 2: strongly swollen, green buds; Stage 3: Buds before breaking open, leaf or flower root already visible; Stage 4: Flower buds fully developed, but still closed, white petals already visible. In the case of the grapevine, stage 4 was the unfolding of the first leaves; Stage 5: Flowers fully open or, in the case of grapevine, unfolding of the flower roots (“Gescheine”) on the fully leafed sprouts
Experimental: Greenhouse tests were conducted using cut fruit tree branches placed in water jars and maintained under controlled conditions with temperature regulation at approximately 22° C. and natural lighting. C3: Table Cherry, Type Burlat Table cherry: Prunus avium type Bigarreau Burlat or […] is a strong-growing somewhat sparse growing sweet cherry tree with horizontal side sprouts. The type has been known since 1930 and is one of the most important types in commercial cultivation. […] Medium but regular yields identify the type as a secondary type for early and dry areas. […] The test solutions were prepared directly, i.e. without intermediate preparation of a concentrate. For each of the test substances A-1 to A-13, an aqueous solution of 0.15 mol of the test substance and 0.15 g BreakThru® OE-446 was prepared and filled up to a total of 500 g with water. Of bis-cyanamides A-14 and A-15, 0.075 mol each was filled up to 500 g in an analogous manner. These test solutions (in combination with the above 4 species/types Cx) were given the test numbers Cx-A1 to Cx-A15. […] This was done with the following evaluation scale: • Stage 0: […] Flower buds fully developed, but still closed, white petals already visible. […] Flowers fully open or, in the case of grapevine, unfolding of the flower roots (“[…]”) on the fully leafed sprouts.

[4] = system: Grape, type Pinot Noir (C4); experiment: Greenhouse test, cut wine sprouts C4 dipped in test solution, bud development stage; format: in vivo, Vitis vinifera subsp. vinifera; set-up: key to Bud development stage, wine sprouts C4: Stage 0: Buds unchanged; Stage 1: Buds slightly swollen, first green tips visible; Stage 2: strongly swollen, green buds; Stage 3: Buds before breaking open, leaf or flower root already visible; Stage 4: Flower buds fully developed, but still closed, white petals already visible. In the case of the grapevine, stage 4 was the unfolding of the first leaves; Stage 5: Flowers fully open or, in the case of grapevine, unfolding of the flower roots (“Gescheine”) on the fully leafed sprouts; conditions: for Dormancy-breaking effect according to the definition, wine C4: stage 4 reached or exceeded after 36 days vs negative control
Experimental: Greenhouse tests were conducted using cut fruit tree branches placed in water jars and maintained under controlled conditions with temperature regulation at approximately 22° C. and natural lighting. C4: Grape, Type Pinot Noir Grape: Vitis vinifera subsp. vinifera type Pinot Noir is an important and high quality red wine type that has existed for possibly 2000 years. It is cultivated all over the world because the type produces high quality red wines and has sufficient winter frost resistance. The type requires early and good areas with deep, warm, medium-heavy and fertile soils with good water supply. Pinot Noir produces regular, medium-high to high yields. However, there are a large number of clones that differ in yield, berry size and looseness. […] The test solutions were prepared directly, i.e. without intermediate preparation of a concentrate. For each of the test substances A-1 to A-13, an aqueous solution of 0.15 mol of the test substance and 0.15 g BreakThru® OE-446 was prepared and filled up to a total of 500 g with water. Of bis-cyanamides A-14 and A-15, 0.075 mol each was filled up to 500 g in an analogous manner. These test solutions (in combination with the above 4 species/types Cx) were given the test numbers Cx-A1 to Cx-A15. […] This was done with the following evaluation scale: • Stage 0: […] Flower buds fully developed, but still closed, white petals already visible. […] Flowers fully open or, in the case of grapevine, unfolding of the flower roots (“[…]”) on the fully leafed sprouts.

[5] = T1 (14 d), 0.15 mol (A-14, A-15: 0.075 mol) per 500 g solution
[6] = stage 4 reached or exceeded after 27 days vs negative control

Row | SMILES | Bud development stage, apple branches C1 [1, 5] | Bud development stage, apple branches C1 ([1]; T2 (16 d)) | Bud development stage, apple branches C1 ([1]; T3 (21 d)) | Bud development stage, apple branches C1 ([1]; T4 (27 d)) | Bud development stage, apple branches C1 ([1]; T5 (36 d)) | Bud development stage, apple branches C1 ([1]; T6 (56 d)) | Bud development stage, apple branches C2 [2, 5] | Bud development stage, apple branches C2 ([2]; T2 (16 d)) | Bud development stage, apple branches C2 ([2]; T3 (21 d)) | Bud development stage, apple branches C2 ([2]; T4 (27 d)) | Bud development stage, apple branches C2 ([2]; T5 (36 d)) | Bud development stage, apple branches C2 ([2]; T6 (56 d)) | Bud development stage, cherry branches C3 [3, 5] | Bud development stage, cherry branches C3 ([3]; T2 (16 d)) | Bud development stage, cherry branches C3 ([3]; T3 (21 d)) | Bud development stage, cherry branches C3 ([3]; T4 (27 d)) | Bud development stage, cherry branches C3 ([3]; T5 (36 d)) | Bud development stage, cherry branches C3 ([3]; T6 (56 d)) | Bud development stage, wine sprouts C4 [4, 5] | Bud development stage, wine sprouts C4 ([4]; T2 (16 d)) | also measured
1 | N#CNC=O.[Na] [Example A-2, Sodium Formylcyanamide] | 0 | 0 | 4 | 5 | 5 | 5 | 0 | 0 | 1 | 3 | 5 | 5 | 1 | 2 | 5 | 5 | 5 | 5 | 0 | 1 | Good to very good dormancy-breaking effect, apple C1 [1]: good to very good dormancy-breaking effect; Dormancy-breaking effect according to the definition, apple C1 [1]: dormancy-breaking effect; Dormancy-breaking effect according to the definition, apple C2 [2]: dormancy-breaking effect; Good to very good dormancy-breaking effect, cherry C3 ([3]; stage 4 reached or exceeded after 21 days vs negative control): good to very good dormancy-breaking effect; Dormancy-breaking effect according to the definition, cherry C3 [3, 6]: dormancy-breaking effect; Bud development stage, wine sprouts C4 ([4]; T3 (21 d)): 3; Bud development stage, wine sprouts C4 ([4]; T4 (27 d)): 5; Bud development stage, wine sprouts C4 ([4]; T5 (36 d)): 5; Bud development stage, wine sprouts C4 ([4]; T6 (56 d)): 5; Effect compared with cyanamide, wine C4 ([4]; in vivo): equal effect with cyanamide; Good to very good dormancy-breaking effect, wine C4 [4, 6]: good to very good dormancy-breaking effect; Dormancy-breaking effect according to the definition, wine C4 [4]: dormancy-breaking effect
2 | CCCCCC(=O)NC#N.[Na] [Example A-9, Sodium hexanoyl cyanamide] | 0 | 1 | 1 | 2 | 2 | 3 | 0 | 1 | 4 | 5 | 5 | 5 | 0 | 1 | 2 | 3 | 5 | 5 | 0 | 0 | Good to very good dormancy-breaking effect, apple C2 [2, 6]: good to very good dormancy-breaking effect; Dormancy-breaking effect according to the definition, apple C2 [2]: dormancy-breaking effect; Bud development stage, wine sprouts C4 ([4]; T3 (21 d)): 0; Bud development stage, wine sprouts C4 ([4]; T4 (27 d)): 2; Bud development stage, wine sprouts C4 ([4]; T5 (36 d)): 5; Bud development stage, wine sprouts C4 ([4]; T6 (56 d)): 5; Dormancy-breaking effect according to the definition, wine C4 [4]: dormancy-breaking effect
3 | CC(C)(C)C(=O)NC#N.[Na] [Example A-8, Sodium pivaloyl cyanamide] | 0 | 0 | 2 | 4 | 4 | 4 | 0 | 0 | 0 | 1 | 2 | 4 | 0 | 0 | 1 | 2 | 4 | 5 | 0 | 0 | Good to very good dormancy-breaking effect, apple C1 [1]: good to very good dormancy-breaking effect; Dormancy-breaking effect according to the definition, apple C1 [1]: dormancy-breaking effect; Bud development stage, wine sprouts C4 ([4]; T3 (21 d)): 0; Bud development stage, wine sprouts C4 ([4]; T4 (27 d)): 1; Bud development stage, wine sprouts C4 ([4]; T5 (36 d)): 4; Bud development stage, wine sprouts C4 ([4]; T6 (56 d)): 5; Dormancy-breaking effect according to the definition, wine C4 [4]: dormancy-breaking effect
